Results published in ChEMBL document CHEMBL6096661, “Synthesis, biological evaluation and mechanism study of a novel indole-pyridine chalcone derivative as antiproliferative agent against tumor cells through dual targeting tubulin and HK2” (Eur J Med Chem, 2025).
pIC50: −log10 of the molar value. Calls of active or inactive are those of the source. The calls are words filed in the database; no cut-off is given here.

What was measured:
[1] = test system: MDA-MB-231; assay: Induction of ROS generation in human MDA-MB-231 cells assessed as increase in green fluorescence at 0.5 uM incubated for 24 hrs by DCFH-DA staining based flow cytometric analysis (reference value: 62.3 %); assay type: functional
[2] = test system: MDA-MB-231; assay: Induction of cell cycle arrest in human MDA-MB-231 cells assessed as decreased proportion of cells at G1 phase at 0.5 to 2 uM by flow cytometric analysis; assay type: functional, cell-based; conditions: dose 0.5-2 µM
[3] = molecular target: T1, Hexokinase-2 (Homo sapiens) (UniProt P52789); assay: Mixed inhibition of human HK2 transfected in Escherichia coli BL21 (DE) assessed as increase in Km with decrease in Vmax at 0.25 to 4 uM using glucose as substrate by Lineweaver-Burk plot analysis; conditions: dose 0.25-4 µM
T1 sequence (whole entry): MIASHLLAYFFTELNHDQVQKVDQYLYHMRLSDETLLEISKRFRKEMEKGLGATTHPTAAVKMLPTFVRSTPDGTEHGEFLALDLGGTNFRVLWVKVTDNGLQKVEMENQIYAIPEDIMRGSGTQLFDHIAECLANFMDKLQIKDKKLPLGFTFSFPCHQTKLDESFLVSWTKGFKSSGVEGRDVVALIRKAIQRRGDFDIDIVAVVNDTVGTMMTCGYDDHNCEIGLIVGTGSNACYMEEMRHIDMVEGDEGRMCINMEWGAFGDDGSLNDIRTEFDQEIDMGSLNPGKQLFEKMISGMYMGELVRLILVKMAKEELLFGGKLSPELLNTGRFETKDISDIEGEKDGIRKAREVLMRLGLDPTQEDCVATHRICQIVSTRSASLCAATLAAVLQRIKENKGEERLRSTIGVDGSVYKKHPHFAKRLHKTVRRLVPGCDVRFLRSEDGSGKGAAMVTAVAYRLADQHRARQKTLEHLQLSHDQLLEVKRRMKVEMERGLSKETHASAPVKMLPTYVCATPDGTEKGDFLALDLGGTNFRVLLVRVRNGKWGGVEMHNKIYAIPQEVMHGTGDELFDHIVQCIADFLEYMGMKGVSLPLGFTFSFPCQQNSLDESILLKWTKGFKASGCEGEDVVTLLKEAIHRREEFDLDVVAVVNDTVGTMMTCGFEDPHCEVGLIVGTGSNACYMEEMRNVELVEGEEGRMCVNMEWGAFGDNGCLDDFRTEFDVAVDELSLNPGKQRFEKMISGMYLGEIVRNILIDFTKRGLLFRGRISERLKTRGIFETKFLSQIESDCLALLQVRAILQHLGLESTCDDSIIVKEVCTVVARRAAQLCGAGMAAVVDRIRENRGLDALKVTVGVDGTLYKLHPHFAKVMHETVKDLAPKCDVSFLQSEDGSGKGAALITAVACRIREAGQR

[4] = test system: MDA-MB-231; assay: Inhibition of colony formation in human MDA-MB-231 cells assessed as reduction in number of colonies at 1 uM incubated for 8 days by crystal violet staining based assay; assay type: functional, cell-based; conditions: time 8.0 day
[5] = test system: MDA-MB-231; assay: Induction of cell cycle arrest in human MDA-MB-231 cells assessed as increased proportion of cells at S phase at 0.5 to 2 uM by flow cytometric analysis; assay type: functional, cell-based; conditions: dose 0.5-2 µM
[6] = test system: HCT-116; assay: Antiproliferative activity against human HCT-116 cells assessed as inhibition of cell proliferation incubated for 4 days by CCK-8 assay; assay type: functional, cell-based; conditions: HCT-116, 96 h
[7] = test system: MDA-MB-231; assay: Antiproliferative activity against human MDA-MB-231 cells assessed as inhibition of cell proliferation incubated for 1 day by CCK-8 assay; assay type: functional, cell-based; conditions: MDA-MB-231, 24 h
[8] = test system: HCT-116; assay: Antiproliferative activity against human HCT-116 cells assessed as inhibition of cell growth incubated for 48 hrs by CCK-8 assay; assay type: functional, cell-based; conditions: HCT-116, 48 h
[9] = test system: MDA-MB-231; assay: Induction of apoptosis in human MDA-MB-231 cells assessed as nuclear shrinkage at 0.5 to 2 uM incubated for 24 hrs by Hoechst 33342 staining based fluorescence microscopic analysis; assay type: functional, cell-based; conditions: dose 0.5-2 µM
[10] = Selectivity ratio of IC50 for cytotoxicity against green monkey Vero cells to IC50 for antiproliferative activity against human LoVo cells; assay type: toxicity, cell-based; conditions: Vero cells versus LoVo cells, read-out: Ratio IC50
[11] = test system: HCT-116; assay: Antiproliferative activity against human HCT-116 cells assessed as inhibition of cell proliferation incubated for 1 day by CCK-8 assay; assay type: functional, cell-based; conditions: HCT-116, 24 h
[12] = test system: MDA-MB-231; assay: Induction of apoptosis in human MDA-MB-231 cells assessed as pyknotic bright nuclei at 0.5 to 2 uM incubated for 24 hrs by Hoechst 33342 staining based fluorescence microscopic analysis; assay type: functional, cell-based; conditions: dose 0.5-2 µM
[13] = molecular target: T1, Hexokinase-2 (Homo sapiens); assay: Non-competitive inhibition of human HK2 transfected in Escherichia coli BL21 (DE) assessed as constant Km with decrease in Vmax at 0.25 to 4 uM using ATP as substrate by Lineweaver-Burk plot analysis; conditions: dose 0.25-4 µM
[14] = test system: MDA-MB-231; assay: Antiproliferative activity against human MDA-MB-231 cells assessed as reduction in cell proliferation incubated for 48 hrs by CCK-8 assay; assay type: functional, cell-based; conditions: MDA-MB-231, 48 h
[15] = test system: MDA-MB-231; assay: Induction of ROS generation in human MDA-MB-231 cells assessed as increase in green fluorescence at 2 uM incubated for 24 hrs by DCFH-DA staining based flow cytometric analysis (reference value: 62.3 %); assay type: functional
[16] = test system: MDA-MB-231; assay: Antiproliferative activity against human MDA-MB-231 cells assessed as inhibition of cell proliferation incubated for 3 days by CCK-8 assay; assay type: functional, cell-based; conditions: MDA-MB-231, 72 h
[17] = test system: MDA-MB-231; assay: Antiproliferative activity against human MDA-MB-231 cells assessed as inhibition of cell proliferation incubated for 4 days by CCK-8 assay; assay type: functional, cell-based; conditions: MDA-MB-231, 96 h
[18] = test system: Mitochondrial membrane; assay: […] in human MDA-MB-231 cells at 2.0 uM by JC-1 fluorescent probe based flow cytometric analysis (reference value: 2.56 %)
[19] = test system: MDA-MB-231; assay: Induction of apoptosis in human MDA-MB-231 cells assessed as decrease in Cyclin A level by Western blotting analysis; assay type: functional, cell-based; conditions: dose 0.5-2 µM
[20] = test system: MDA-MB-231; assay: Induction of apoptosis in human MDA-MB-231 cells assessed as increase in total apoptotic cells by annexin-V/PI double staining based flow cytometric analysis; assay type: functional, cell-based; conditions: dose 0.5-2 µM
[21] = molecular target: T2, Hexokinase-2 (Homo sapiens, UniProt P52789); assay: Inhibition of human HK2 transfected in Escherichia coli BL21 (DE) incubated for 10 mins
T2 sequence (P52789 whole entry): T1 sequence (whole entry)

[22] = test system: HT-1080; assay: Antiproliferative activity against human HT-1080 cells assessed as inhibition of cell growth incubated for 48 hrs by CCK-8 assay; assay type: functional, cell-based; conditions: HT-1080, 48 h
[23] = molecular target: T1, Hexokinase-2 (Homo sapiens); assay: Binding affinity to human HK2 transfected in Escherichia coli BL21 (DE) assessed as HK2 stabilization at 4 uM at 37 to 55 degreeC incubated for 10 to 30 mins by CETSA; conditions: time 10-30 min
[24] = molecular target: Tubulin (Homo sapiens) (UniProt P68371+Q9H4B7+P0DPH7+P68366+Q13509+Q71U36+P04350+Q3ZCM7+P07437+P68363+Q9BQE3+Q6PEY2+Q13885+Q9BVA1+Q9BUF5); assay: Disruption of microtubule network in human MDA-MB-231 cells assessed as punctate fiber structure at 1 to 2 uM incubated for 24 hrs by DAPI staining based fluorescence microscopic analysis; assay type: cell-based; conditions: dose 1-2 µM

## O=C(/C=C/c1cn(S(=O)(=O)c2ccc([N+](=O)[O-])cc2)c2ccc(N3CCOCC3)cc12)c1cccnc1
[1]
  Activity: 88.4%
[2]
  Activity: Active
[3]
  inhibition: Active
[4]
  inhibition: Active
[5]
  Activity: Active
[6]
  pIC50: 6.52
[7]
  pIC50: 5.79
[8]
  pIC50: 6.29
[9]
  Activity: Active
[10]
  selectivity ratio: 5
[11]
  pIC50: 5.71
[12]
  Activity: Active
[13]
  inhibition: Active
[14]
  pIC50: 6.15
[15]
  Activity: 92.8%
[16]
  pIC50: 6.25
[17]
  pIC50: 6.03
[18]
  Activity: 32.3%
[19]
  Activity: Dose-dependent-effect
[20]
  Activity: Dose-dependent-effect
[21]
  pIC50: 5.81
[22]
  pIC50: 6.06
[23]
  Activity: Active
[24]
  Activity: Active
